Measured values reported in US11603349B2, “Anti-fibrotic compounds” (Certa Therapeutics Pty Ltd, priority 2017, dated 2023).
Where a name gives a salt, the structure may show the parent alone.

Columns and labels:
[1] = Discrete oral pharmacokinetic studies in male Sprague Dawley rats; format: in vivo, rat; details: male SD rats
Experimental: Discrete oral pharmacokinetic studies were performed for example compounds 116, 107, and 102.
116: 2 mg/kg and 20 mg/kg of 116 were administered as single doses to male Sprague Dawley (SD) rats. 75 mg/kg and 350 mg/kg of 116 were administered daily (5 days) to male Sprague Dawley (SD) rats.
107: 2 mg/kg and 20 mg/kg of 107 were administered as single doses to male Sprague Dawley (SD) rats. 75 mg/kg and 350 mg/kg of 107 were administered daily (5 days) to male Sprague Dawley (SD) rats.
102: 2 mg/kg and 20 mg/kg of 102 were administered as single doses to male Sprague Dawley (SD) rats. 75 mg/kg and 350 mg/kg of 102 were administered daily (5 days) to male Sprague Dawley (SD) rats. […] An increase in plasma concentrations were observed between the 75 and 350 mg/kg/day dosing groups.

[2] = MTS tetrazolium reduction cell viability assay; details: rat, rat mesangial cells (1097/IRMC cells), TGF-β1 stimulated, CC50 (μM), vs 1% DMSO vehicle
[3] = test system: rat mesangial cells (1097/IRMC cells); experiment: MTS tetrazolium reduction cell viability assay; details: TGF-β1 stimulated IRMC cells, vs 1% DMSO vehicle
[4] = test system: TGF-β induced [14C]-proline incorporation in rat mesangial cells; experiment: [14C]-proline incorporation assay (collagen biosynthesis); format: cell-based; details: Rattus norvegicus, Mesangial cell, 44 h, inhibition of TGF-β1 (1 ng/ml) induced [14C]-proline incorporation, IRMC cells
in vitro = details: rat, CC50 (μM)

| Compound | IC50 [4] [µM] | CC50 at 48 h (in vitro) [µM] | further results |
| --- | --- | --- | --- |
| COc1ccc(/C=C/C(=O)Nc2ccccc2C(=O)O)c(OCCN(C)C)c1OC [Example 116, (E)-2-(3-(2-(2-(dimethylamino)ethoxy)-3,4-dimethoxyphenyl)acrylamido)benzoic Acid] |  |  | coverage of IC50 relative to a 200 mg/kg/day regime of FT011 ([1]; 75 mg/kg): superior; coverage of IC50 relative to a 200 mg/kg/day regime of FT011 ([1]; 350 mg/kg): superior; adverse compound related effects ([1]; 2 and 20 mg/kg single dose, 75 and 350 mg/kg daily (5 days)): No adverse compound related effects were observed; change in plasma concentrations between the 75 and 350 mg/kg/day dosing groups ([1]; after the initial dose): little to no increase; trough concentrations, 350 mg/kg/day dosing group ([1]; daily, throughout the 5-day study): lower than expected; CC50 at 48 h [2]: 294 µM; CC50 [3]: > 300 µM |
| COc1cc(/C=C/C(=O)n2nc(O)c3ccccc32)ccc1C1=CCNCC1 [Example 142, (E)-1-(3-hydroxy-1H-indazol-1-yl)-3-(3-methoxy-4-(1,2,3,6-tetrahydropyridin-4-yl)phenyl)prop-2-en-1-one] | 31.7 | > 300 |  |
| COc1cc(C2CC2C(=O)Nc2ccc(F)cc2)ccc1C1=CCNCC1 (centres unmarked) [Example 143, N-(4-fluorophenyl)-2-(3-methoxy-4-(1,2,3,6-tetrahydropyridin-4-yl)phenyl)cyclopropane carboxamide trifluoroacetic acid salt] | 2.81 | 7.2 |  |
| COc1cc(C2CC2C(=O)Nc2ccccc2-n2cnc(C)n2)ccc1C1=CCNCC1 (centres unmarked) [Example 144, 2-(3-methoxy-4-(1,2,3,6-tetrahydropyridin-4-yl)phenyl)-N-(2-(3-methyl-1H-1,2,4-triazol-1-yl)phenyl)cyclopropanecarboxamide trifluoroacetic acid salt] | 20.9 | 81 |  |
| COc1cc(C2CC2C(=O)Nc2ccccc2F)ccc1C1=CCNCC1 (centres unmarked) [Example 145, N-(2-fluorophenyl)-2-(3-methoxy-4-(1,2,3,6-tetrahydropyridin-4-yl)phenyl)cyclopropane carboxamide trifluoroacetic acid] | 3.71 | 11.7 |  |
| COc1cc(C2CC2C(=O)n2nc(O)c3ccccc32)ccc1C1=CCNCC1 (centres unmarked) [Example 146, (3-hydroxy-1H-indazol-1-yl)(2-(3-methoxy-4-(1,2,3,6-tetrahydropyridin-4-yl)phenyl)cyclopropyl)methanone trifluoroacetic acid salt] | 19.6 | > 300 |  |
